Patent publication US8686036B2, “Methods of controlling heart rate while minimizing and/or controlling hypotension” (Baxter International Inc., priority 2011, dated 2014)
Where a name gives a salt, the structure may show the parent alone.

How the values were obtained:
[1] = Anesthetized mongrel dog model of the hypotensive potential of esmolol infusions; type: in vivo; conditions: for decrease in mean arterial pressure (MAP) from pre-infusion baseline, percent change: high dose infusion protocols, FIG. 10: 2000 μg/kg/min RS, 1000 μg/kg/min S, 1000 μg/kg/min R
Description: A model system utilizing anesthetized mongrel dogs was established in order to predict the hypotensive potential of esmolol hydrochloride injection in human patients. One dog was administered a formulation containing racemic esmolol hydrochloride at a loading dose of 600 μg/kg/min for 3 minutes followed by a maintenance infusion of 300 μg/kg/min for 10 minutes (referred to as 600RS/300RS) followed by a washout period (FIG. 1). In this and subsequent figures, the duration of infusion of the various medicaments is indicated by a coded horizontal line, parallel to the time axis. This protocol was repeated by administering 2000 μg/kg/min for 3 minutes followed by a maintenance infusion of 1000 μg/kg/min for 10 minutes (referred to as 2000RS/1000RS) and then by administering 400 μg/kg/min for 3 minutes followed by a maintenance infusion of 200 μg/kg/min for 10 minutes (referred to as 400RS/200RS). Mean arterial blood pressure and heart rate were monitored throughout the experiment.
While the doses administered to the dogs in the experiments described herein were larger than typical clinical doses, the doses were administered in order to increase repeatability and induce acute hypotension in close to 100% of the dogs by sufficiently increasing the effect level above background noise. Moreover, relative to esmolol administration in humans, the dog model replicates within experimental error the same dependence of mean arterial blood pressure versus infusion rate. Therefore, the conclusions reached at these relatively higher dose levels in dogs are relevant to minimization of adverse effects at lower doses in humans.
In initial experiments, the hypotensive potential of a composition comprising the S-isomer of esmolol hydrochloride was compared to a composition comprising the racemic formulation. Mean arterial blood pressure, cardiac output, and systemic vascular resistance were monitored throughout the experiments. Cardiac output and systemic vascular resistance were evaluated to understand the cause of the hypotension (i.e., decrease in cardiac output and/or decrease in systemic vascular resistance).
Each of four mongrel dogs was administered increasing doses of esmolol hydrochloride (FIGS. 2-5). Two dogs (D00028 and DG0029) received 150 μg/kg/min of the S-isomer formulation until mean arterial pressure reached a steady state, at which time the animal was immediately switched over to 300 μg/kg/min of the racemic formulation (this protocol is referred to as 150S/300RS in FIGS. 3a and 4a). Once a steady state was reached the infusion was stopped and was followed by a washout period. A similar protocol was repeated in both dogs using 300 μg/kg/min of the S-isomer of esmolol followed by administration of 600 μg/kg/min of the racemic mixture of esmolol (this protocol is 300S/600RS in FIGS. 3b and 4b). A final protocol involved administration of 1000 μg/kg/min of the S-isomer of esmolol followed by administration of 2000 μg/kg/min of the racemic mixture of esmolol followed by 1000 μg/kg/min of the S-isomer of esmolol (this protocol is referred to as 1000S/2000RS/1000S in FIGS. 3c and 4c).
A similar series of protocols were repeated with the other two dogs (DG0027 and DG0030) except the racemic mixture of esmolol was administered before the S-isomer. In other words, 300 μg/kg/min of the racemic mixture of esmolol was administered, followed by administration of 150 μg/kg/min of the S-isomer of esmolol (this protocol is referred to as 300RS/150S in FIGS. 2a and 5a), 600 μg/kg/min of the racemic mixture of esmolol was administered, followed by administration of 300 μg/kg/min of the S-isomer of esmolol (this protocol is referred to as 600RS/300S in FIGS. 2b and 5b), and 2000 μg/kg/min of the racemic mixture of esmolol was administered, followed by administration of 1000 μg/kg/min of the S-isomer of esmolol, and then 2000 μg/kg/min of the racemic mixture of esmolol again (this protocol is referred to as 2000RS/1000S/2000RS in FIGS. 2c and 5c)]. […]

[2] = test system: isoproterenol-induced tachycardia; assay: Isoproterenol challenge (isoproterenol-induced tachycardia) in dogs after esmolol infusion; type: in vivo, dog; conditions: for reduction in mean arterial pressure: 10 minutes
Description: The purpose of this experiment was to determine if the attenuated hypotension (as assessed by mean arterial blood pressure end point) observed in Example 2 following administration of the S-isomer was associated with reduced efficacy (i.e., ability to control isoproterenol-induced tachycardia) as compared with the racemic formulations.
One dog was administered a bolus dose of isoproterenol (0.25 μg/kg) to establish a baseline heart rate response (FIG. 6a). Isoproterenol is a non-selective […] adrenergic agonist capable of inducing tachycardia. After a washout period, the racemic formulation (RS) was administered at 90 μg/kg/min for 10 minutes immediately followed by an isoproterenol challenge. After a washout period, the S-isomer formulation (S) was administered at 45 μg/kg/min for 10 minutes immediately followed by another isoproterenol challenge. This protocol was repeated using 150 μg/kg/min S-isomer followed by 300 μg/kg/min racemic formulation (FIG. 6b) then 2000 μg/kg/min racemic formulation followed by 1000 μg/kg/min S-isomer (FIG. 6c).
The experimental protocol was carried out essentially as described in Example 3. In short, each dog was administered racemic esmolol (RS) at the indicated dose for 10 minutes immediately followed by an isoproterenol challenge (a bolus dose of isoproterenol at 0.25 μg/kg). After a washout period, the S-isomer formulation (S) was administered at an equitherapeutic dose for 10 minutes immediately followed by another isoproterenol challenge. This protocol was performed at 90 μg/kg/min RS/45 μg/kg/min S (5 dogs), 300 μg/kg/min RS/150 μg/kg/min S (1 dog), 600 μg/kg/min RS/300 μg/kg/min S (3 dogs), 1000 μg/kg/min RS/500 μg/kg/min S (4 dogs), and 2000 μg/kg/min RS/1000 μg/kg/min S (3 dogs).
In order to better estimate the true differential effect in hypotensive potential between racemic esmolol and the S-isomer of esmolol at the lower dose range, data from other dogs that were not part of the isoproterenol challenge experiments, but were otherwise treated identically, were combined with the data set from FIG. 12A and presented in FIG. 12B. The additional data points were only from those dogs where a stated dose was administered first or where a sufficient wash-out period preceded the stated dose as to avoid any confounding variables. […] Thus, the lack of significant differentiation in mean arterial pressure seen at the lower doses in FIG. 12A was likely due to the relatively smaller sample size and biological variability.

[3] = Anesthetized mongrel dog model of the hypotensive potential of esmolol infusions; type: in vivo
beta-adrenergic = conditions: WO 88/01614; cited from earlier work
[4] = Superimposition of dog systolic blood pressure results with human meta-analysis (Yu et al.); type: in vivo; conditions: at a given dose, FIG. 13, human data of Yu et al.
From the text: The esmolol doses administered to the dogs in the experiments described herein needed to be larger than typical clinical doses used in humans in order to increase repeatability and induce acute hypotension in close to 100% of the dogs by sufficiently increasing the effect level above background noise. To confirm that the results obtained herein with mongrel dogs are clinically relevant, data from the experimental results obtained herein were superimposed with the maximal weighted mean difference in systolic blood pressure results obtained by Yu et al. in a meta-analysis of randomized controlled clinical trials with esmolol hydrochloride (Yu et al., Anesth Analg. 2011 February; 112(2):267-81).

[5] = cited from earlier work
[6] = Example 1, one dog, 400RS/200RS, 600RS/300RS, 2000RS/1000RS

## COC(=O)CCc1ccc(OC[C@@H](O)CNC(C)C)cc1.Cl (single isomer, unassigned) [S-isomer]
[1]; Example 2, 1000 μg/kg/min S-isomer vs 2000 μg/kg/min racemic mixture
  hypotension (mean arterial blood pressure) at the high dose infusion protocol: significantly less hypotension relative to the racemic formulation
[1]; Example 2, 2000RS/1000S/2000RS protocol, FIG. 2c
  mean arterial blood pressure during the 1000S phase: increased
[1]; FIG. 11, initial state RS racemic mixture, then S-isomer
  increase in MAP from end of first infusion to end of second infusion: 34%
[1]
  decrease in mean arterial pressure (MAP) from pre-infusion baseline, percent change: 13%
[2]; Example 3, 1000 μg/kg/min S-isomer vs 2000 μg/kg/min racemic formulation
  hypotension (mean arterial blood pressure) at the high infusion rate: significantly less hypotension relative to the racemic formulation
[2]; Example 3, equitherapeutic amounts (half the racemic dose)
  efficacy in reducing isoproterenol-induced tachycardia: same degree of efficacy in reducing isoproterenol-induced tachycardia as compared with the racemic formulation
[2]; Example 5, doses greater than 600 μg/kg/min racemic esmolol/300 μg/kg/min S-isomer formulation
  hypotensive effect (reduction in mean arterial pressure) vs racemic esmolol: differed significantly
[2]; Example 5, equitherapeutic dose 500 μg/kg/min
  reduction in mean arterial pressure: about 10 mmHg
[2]; Example 5, equitherapeutic dose (half the racemic dose), all doses, FIG. 12A
  percent reduction in heart rate following isoproterenol challenge vs racemic esmolol: essentially identical
[2]; Example 5, equitherapeutic doses, across all doses
  efficacy in reducing isoproterenol-induced tachycardia: same degree of efficacy in reducing isoproterenol-induced tachycardia as compared with the racemic formulation
[2]; FIG. 12B, 600 μg/kg/min racemic esmolol (7 dogs)/300 μg/kg/min S-isomer (5 dogs)
  difference in mean arterial pressure vs racemic esmolol, pooled data: statistically significant difference in mean arterial pressure
[3]; Example 4, 1000 μg/kg/min S after 2000 μg/kg/min RS
  mean arterial blood pressure at the high dose infusion rate relative to the racemic formulation: improved (or increased)
beta-adrenergic
  potency as beta-adrenergic-blocking agent relative to an equivalent amount of the racemic mixture: about twice

## COC(=O)CCc1ccc(OCC(O)CNC(C)C)cc1 (racemic) [esmolol hydrochloride, methyl-3-[4-(2-hydroxy-3-isopropylamino)propoxy]phenylpropionate hydrochloride]
[1]; [6]
  heart rate response: dose-dependent reflex tachycardia
  mean arterial blood pressure response: clear dose-dependent decrease in mean arterial blood pressure
[1]; Example 2, four dogs, 300, 600, 2000 μg/kg/min, before or after the S-isomer
  mean arterial pressure response: dose-dependent decrease in mean arterial pressure in all four dogs
[1]; FIG. 11, initial state S-isomer formulation, then RS racemic mixture
  decrease in MAP from end of first infusion to end of second infusion: 32%
[1]
  decrease in mean arterial pressure (MAP) from pre-infusion baseline, percent change: 40%
[2]; Example 3, one dog, RS 90, 300, 2000 μg/kg/min vs S 45, 150, 1000 μg/kg/min
  mean arterial blood pressure response: greater dose-dependent decrease in mean arterial blood pressure relative to the S-isomer
[2]; Example 5, infusion rate 1000 μg/kg/min
  reduction in mean arterial pressure: about 20 mmHg
[4]
  severity of clinical hypotension (systolic blood pressure) in human patients relative to the dog model: more than two times as severe
[5]; clinical trials, packaging insert
  patients who experienced hypotension: 20-50%
[5]; loading infusion 500 μg/kg body weight per minute, Ko et al.
  acute hypotension in patients of Asian ancestry: all patients administered this dosage experienced acute hypotension

## COC(=O)CCc1ccc(OC[C@H](O)CNC(C)C)cc1 (single isomer, unassigned) [R-isomer]
[1]; Examples 1-4
  ability to lower heart rate when experimentally increased: no apparent, inherent ability to lower heart rate
[1]
  decrease in mean arterial pressure (MAP) from pre-infusion baseline, percent change: 19%
[3]; Example 4
  cardiovascular changes following administration: qualitatively identical to those following the administration of the racemic formulation
